Experimental data taken from PubChem BioAssay (NCI).
Where “and” joins values, the source holds several entries; their conditions need not be identical. Identical values can stand only once.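 Five concentrations, 48 hours, 96-well plates. GI50 is the concentration that inhibits growth by half. At the TGI there is no net growth.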

How the values were obtained:
Experiment in all cases: inhibition of tumour cell growth, NCI panel, 48 h
[1] = test system: EKVX NSCLC
[2] = test system: HL-60(TB) leukemia
[3] = test system: KM12 colon
[4] = test system: LOX IMVI melanoma
[5] = test system: M14 melanoma
[6] = test system: MALME-3M melanoma
[7] = test system: NCI-H23 lung
[8] = test system: RPMI-8226 leukemia
[9] = test system: SF-539 CNS
[10] = test system: SNB-75 CNS

Structure (SMILES) | TGI [1] | TGI [2] | TGI [3] | TGI [4] | TGI [5] | TGI [6] | TGI [7] | TGI [8] | TGI [9] | TGI [10] | GI50 [1] | GI50 [2] | GI50 [3] | GI50 [4] | GI50 [5] | GI50 [6] | GI50 [7] | GI50 [8] | GI50 [9] | GI50 [10]
CC1CCCC(C(O)CC2CC(=O)N(c3ccccc3)C(=O)C2)C1=O (configuration not stated) | > 100 µM | > 100 µM | > 100 µM | > 100 µM | > 100 µM | > 100 µM | > 100 µM | > 100 µM | > 100 µM | > 100 µM | – | – | – | – | – | – | – | – | – | –
O=C(O)CCC1COc2ccccc2O1 (configuration not stated) | > 10 µM | > 10 µM | > 10 µM | > 10 µM | > 10 µM | > 10 µM | > 10 µM | > 10 µM | > 10 µM | > 10 µM | – | – | – | – | – | – | – | – | – | –
COc1cc2c3c(n(CCCN)c(=O)c2cc1OC)-c1ccc(F)cc1C3=O | 25.1 µM | 24.9 µM | 20.3 µM | 4.68 µM | 11.4 µM | 28.5 µM | 9.39 µM | 2.71 µM | 3.17 µM | 27 µM | 11.6 µM | 8.15 µM | 5.95 µM | 0.955 µM | 1.44 µM | 9.22 µM | 1.65 µM | 0.605 µM | 1.28 µM | 11.1 µM
Nc1nc2c(c3ncccc13)C(c1cccc(Cl)c1)Cc1ncccc1-2 (configuration not stated) | > 100 µM | 10.3 µM | 15.5 µM | 19.5 µM | 12.7 µM | 60.4 µM | 59.4 µM | 41.1 µM | 7.25 µM | 8.17 µM | 4.9 µM | 1.21 µM | 0.646 µM | 5.12 µM | 1.23 µM | 15.2 µM | 4.93 µM | 4.19 µM | 1.96 µM | 1.12 µM
C#CCN1CCN(C(=S)N/N=C(\C)c2ccccn2)CC1 | 3.52 µM and 6.91 µM | 0.00497 µM and 0.0116 µM | 4.6 µM and 6.33 µM | 6.8 µM | 6.03 µM and 3.32 µM | 5.76 µM and 4.6 µM | 3.99 µM | – | 5.78 µM and 4.56 µM | 6.35 µM and 12.7 µM | 0.471 µM | 0.00195 µM | 0.4 µM | 1.6 µM | 0.0781 µM | 0.496 µM | 0.00567 µM | 0.00287 µM | – | –
O=C(Oc1ccc([N+](=O)[O-])cc1)N1CCN(Cc2cccc(Oc3ccccc3)c2)CC1 | > 100 µM | > 100 µM | > 100 µM | > 100 µM | > 100 µM | > 100 µM | > 100 µM | > 100 µM | > 100 µM | > 100 µM | 48.6 µM | 24.2 µM | 62.5 µM | > 82.6 µM | > 100 µM | > 95.3 µM | > 71.9 µM | 13.1 µM | > 100 µM | > 100 µM
CCc1cccc(CC)c1NC(=S)NC(=O)c1ccc(Br)cc1 | > 100 µM | 26.3 µM | > 100 µM | > 56.2 µM | > 81.2 µM | > 77.1 µM | > 100 µM | > 100 µM | > 100 µM | > 96.6 µM | – | – | – | – | – | – | – | – | – | –
N#C/C(=C/c1cccnc1)C(=O)c1ccccc1 | > 100 µM | > 100 µM | > 100 µM | > 100 µM | > 100 µM | > 100 µM | > 100 µM | > 100 µM | > 100 µM | > 100 µM | – | – | – | – | – | – | – | – | – | –
CN(C)CCNC(=O)c1cccc2cc3ccccc3nc12 | 7.81 µM | 5.3 µM | 10.2 µM | 3.48 µM | 3.29 µM | 3.34 µM | 5.13 µM | > 25.2 µM | 8.21 µM | 6.22 µM | 2.25 µM | 1.03 µM | 2.07 µM | 0.802 µM | 1.43 µM | 1.4 µM | 1.8 µM | 1.89 µM | 1.78 µM | 2.01 µM
COc1ncc(-c2nc3c(n2C(C)C)[C@H](c2ccc(Cl)cc2)N(c2cc(Cl)cn(C)c2=O)C3=O)c(OC)n1 | > 100 µM | 99.7 µM | > 100 µM | > 100 µM | > 100 µM | 59.3 µM | > 100 µM | 87.5 µM | > 100 µM | > 100 µM | 36.6 µM | 31.2 µM | 41.2 µM | 11.2 µM | 36.8 µM | 14.6 µM | > 100 µM | 24.5 µM | 64.5 µM | 30 µM
Nc1ccn([C@H]2C[C@@H](O)[C@@H](CO)S2)c(=O)n1 | > 100 µM | > 100 µM | > 100 µM | > 100 µM | > 100 µM | > 100 µM | > 100 µM | > 100 µM | > 100 µM | > 100 µM | > 100 µM | 14.5 µM | > 100 µM | > 100 µM | > 100 µM | > 100 µM | > 100 µM | > 100 µM | > 100 µM | > 44 µM
CCC(C(=O)[O-])C(=O)[O-].CCC(C(=O)[O-])C(=O)[O-].N.N.NCCCCCN.[Pt+4].[Pt+4] | > 100 µM | > 100 µM | > 100 µM | > 100 µM | > 100 µM | > 100 µM | > 100 µM | > 100 µM | > 100 µM | > 100 µM | > 100 µM | 43.1 µM | > 100 µM | > 100 µM | > 100 µM | > 100 µM | > 100 µM | > 100 µM | > 100 µM | > 100 µM
CCCCn1c2c(c3ccccc3c1=O)C(=O)c1ccccc1-2 | > 100 µM | > 100 µM | > 100 µM | > 100 µM | > 100 µM | > 100 µM | > 100 µM | > 100 µM | > 100 µM | > 100 µM | – | – | – | – | – | – | – | – | – | –
COc1ccc2cc(C(=O)/C=C/c3cccc(Cl)c3Cl)ccc2c1 | > 100 µM | > 100 µM | 64.3 µM | > 24.9 µM | > 100 µM | > 100 µM | 29.4 µM | > 46.8 µM | 12 µM | > 90.8 µM | 20.1 µM | 24.2 µM | 8.08 µM | 0.651 µM | 6.51 µM | > 100 µM | 6.42 µM | 5.56 µM | 2.68 µM | 28.4 µM
